From patent publication US8129383B2, “Aminopterin dosage forms and methods for inflammatory disorders” (Aminopterin LLC, priority 2005, dated 2012)

Columns and labels:
[1] = system: canine atopic dermatitis
Method: […] Subjects were assessed at baseline and at weeks 2 and 4 of the trial, and every other week of the 1-year extension phase.
Subjects were assessed at baseline and at weeks 2 and 4.

[2] = system: active and passive EAE; test: rat EAE animal model of multiple sclerosis; assay type: in vivo
Method: Using the rat EAE animal model of multiple sclerosis, a series of prophetic studies are performed wherein aminopterin is given to animals using both active and passive protocols for inducing EAE (Burton, Agents and Actions (1989) 27 (3/4): 351-355). In the active protocol, animals are intradermally injected with myelin basic protein (MBP), Freund's adjuvant and mycobacteria, whereas in the passive protocol separate donor rats are immunized actively and then 10-12 days after active immunization, donor splenocytes are collected and stimulated […] with MBP for 3 days, then 1−2×10^8 leukocytes injected iv into each irradiated (600 rads) recipient rat. Aminopterin at doses of 0.0005, 0.001, 0.002, 0.005, 0.008, 0.010, 0.050, 0.1 and 0.5 mg/kg are administered ip on the day after active or passive sensitization.

[3] = system: chronic progressive multiple sclerosis; test: randomized, placebo-controlled clinical trial in chronic progressive multiple sclerosis; assay type: in vivo, human
Method: A prophetic randomized, double-blinded, placebo-controlled, clinical trial of low-dose, weekly, oral aminopterin is performed in 60 patients with clinically definite chronic progressive multiple sclerosis (MS) attending a referral-based outpatient MS clinic. Study patients are 21 to 60 years old with a disease duration of longer than 1 year. Patients' Expanded Disability Status Scale scores were 3.0 to 6.5 (ambulatory with moderate disability). Patients are first stratified by Expanded Disability Status Scale scores, 3.0 to 5.5 and 6.0 to 6.5, and then were randomized to receive aminopterin or placebo treatment. Treatment consists of weekly, oral, low-dose (1.0-2.0 mg) aminopterin or placebo for 2 years, followed by observation for as long as 1 year. A composite outcome measurement instrument is used and consists of (1) Expanded Disability Status Scale (EDSS), (2) ambulation index, (3) Box and Block Test, and (4) 9-Hole Peg Test. Failure of therapy is indicated by a designated change that is sustained for more than 2 months in one or more components of this composite measure.

[4] = biological target: T1, partially purified chicken liver DHFR (Gallus gallus, UniProt P00378); test: radioligand DHFR binding assay
T1 sequence (P00378 1-189): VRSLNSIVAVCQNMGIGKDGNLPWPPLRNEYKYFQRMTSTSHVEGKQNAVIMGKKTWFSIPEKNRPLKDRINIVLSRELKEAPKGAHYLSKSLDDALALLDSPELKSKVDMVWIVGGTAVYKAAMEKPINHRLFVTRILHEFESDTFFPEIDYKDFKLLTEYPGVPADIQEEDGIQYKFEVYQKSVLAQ
Method: 16:1458, 1998]. […] After the standard curve is established, a portion of the 200 μM supernatant prepared above for an aminopterin tablet is further diluted 10,000 using two serial 100-fold dilutions with water to provide an approximately 20 nM solution of aminopterin. The DHFR assay is performed with 100 μL of the 20 nM solution, as well as several 2-fold serial dilutions, and the result expressed as pmol/ml aminopterin. The total number of pmol of aminopterin is calculated using the relationship, pmol/ml×10,000×11.35. The total number of mg in the tablet is then calculated using the relationship, total pmol×(10^−6 μmole/pmol)×0.44 mg/μmole.

[5] = system: dermal inflammation; conditions: cumulative weekly doses of 0.35 mg/kg; cited from earlier work

Compound: Nc1nc(N)c2nc(CNc3ccc(C(=O)N[C@@H](CCC(=O)O)C(=O)O)cc3)cnc2n1 [aminopterin, 4-amino-pteroyl-L-glutamic acid]
- median improvement from baseline in PVAS score ([1]; 5 dogs, oral 0.01 mg/kg/week, 4 weeks, range −4 to +2): −4
- median improvement from baseline in CADESI score ([1]; 5 dogs, oral 0.01 mg/kg/week, 4 weeks, range −11 to −91%): −59%
- median improvement from baseline in composite CADESI×pruritis score ([1]; 5 dogs, oral 0.01 mg/kg/week, 4 weeks, range −97 to +24%): −60%
- clinical evidence of hematologic (CBC) or liver toxicity (LFTs) ([1]; dogs treated up to 20 weeks at 0.01 mg/kg/week): no clinical evidence of hematologic (CBC) or liver toxicity (LFTs)
- overall evaluation of efficacy by owners ([1]; median score 2, range 1 to 4, oral 0.01 mg/kg/week, 4 weeks): fair (fair (25-50%))
- overall evaluation of efficacy by clinicians ([1]; median score 2, range 1 to 5, oral 0.01 mg/kg/week, 4 weeks): fair (fair (25-50%))
- persistence of inhibition after the single dose ([2]; active or passive EAE): up to 14 days
- dose-response over the range of doses ([2]; sensitized actively or passively): clear dose-response
- inhibition of the onset of active EAE ([2]; single ip dose (0.0005-0.5 mg/kg) day after active sensitization, one or more of the doses): greater than 80%
- inhibition of the onset of passive EAE ([2]; single ip dose (0.0005-0.5 mg/kg) day after passive sensitization, one or more of the doses): greater than 80%
- toxicity in the treatment group ([3]; weekly oral 1.0-2.0 mg for 2 years): absence of clinically significant toxicity
- progression of impairment (EDSS, ambulation index, Box and Block Test, 9-Hole Peg Test or composite) ([3]; weekly oral 1.0-2.0 mg for 2 years vs placebo): Significantly less progression of impairment
- displacement of 3H-methotrexate and binding to DHFR, aminopterin vs methotrexate [4]: equivalent
- efficacy [5]: demonstrated the efficacy
- toxicity [5]: the animals became severely leucopenic and one subject died
